Consider 1 compound from US12552757B2, “NRF2-activating compound” (SENJU PHARMACEUTICAL CO., LTD., priority 2019, dated 2026).

Data set [1] concerns NRF2. Put plainly: Measurement 2 of Nrf2 activating action (reporter assay) in HCE-T/ARE-Luc cells. The note with it: 50% activation concentration, culture for 24 hours. Format: cell-based. The method, then: The NRF2 activating action of the compounds on cells was measured by a reporter gene assay. pGL4.37[luc2P/ARE/Hygro](Promega) was introduced into HCE-T cells using FuGENE HD. Cells that acquired drug resistance as a result of transduction were screened by culture in the presence of 50 μg/mL hygromycin, and a clone strain, HCE-T/ARE-Luc, was established.
HCE-T/ARE-Luc was cultured using DMEM/F12, 10 ng/mL hEGF, 5 μg/mL insulin, and 5% FBS. Phenol red-free DMEM/F12 was used as the assay medium.
HCE-T/ARE-Luc was seeded in a 96-well polystyrene microplate (FALCON) with 10000 cells per well. The cells were incubated in a CO: incubator at 37° C. for 16 hours to allow for cell adhesion. The test substance was dissolved in dimethylsulfoxide to prepare a solution at a concentration 1000 times higher than the test concentration. The test substance diluted 1000-fold in the assay medium was added, followed by culture for 24 hours. When measuring the activity of the reporter, the medium containing the test substance was removed, and then a new medium and a substrate of ONE-GloEX Luciferase Assay System (Promega) were added. The plate was shaken for 1 minute and then allowed to stand at ordinary temperature for 10 minutes, and luminescence was detected using the GloMax Discover System.
The 50% activation concentration of each test substance was calculated by creating a calibration curve between two concentrations across the luminescence intensity of 50%.
A general note: A reporter such as luciferase makes a cellular process visible.

Data set [2] in a line: Measurement of metabolic stability in human liver microsomes. Format: in vitro ADME. To be noted: residual ratio of test compound after 30 minutes at 37° C. with human liver microsome, LC/MS/MS. In outline: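 Compound was diluted to 200 nmol/L in 6.5 mmol/L NADPH solution (pre-mix levels) and incubated with an equal volume of 0.2 mg protein/mL pooled mixed-gender human liver microsomes for 30 min at 37° C, then quenched with methanol. LC/MS/MS peak areas gave % remaining versus a sample quenched before microsome addition.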

The compound `CC[C@@H]1CN(Cc2cc(C(c3cc(C(C)=O)cs3)C(C)C(=O)O)ccc2C)S(=O)(=O)c2ccccc2O1` (stereo partly drawn) [Compound 3, 3-(4-acetylthiophen-2-yl)-3-(3-{[(R)-4-ethyl-1,1-dioxide-3,4-dihydro-2H-benzo[b][1,4,5]oxathiazepin-2-yl]methyl}-4-methylphenyl)-2-methylpropanoic acid] displayed an EC50 in data set [1] of 6.81 nM. Besides, in data set [2], the “Metabolic stability*” value came to 51%.
